Patent publication US20080286355A1, “Protease Inhibitors For the Treatment of Digestive Pathologies” (priority 2004, published 2008)

Columns and labels:
Format in all cases: in vivo
[1] = tested on: male Swiss mice; assay: Paracellular permeability in mouse colon (51Cr-EDTA) during intracolonic infusion of protease inhibitors; details: 5-hour intracolonic infusion 250 μl/h, 51Cr-EDTA from hours 3 to 5
Experimental: Six groups of ten male Swiss mice (25-30 g) were used for this study. The animals received a 5-hour intracolonic infusion (250 μl/h) of the different protease inhibitor solutions through a catheter inserted through the rectum and fixed at the base of the tail; ^51Cr-EDTA was added to the infusion from hours 3 to 5 (FIG. 2). At t=5 hours, the animals were sacrificed, the colons removed, and total radioactivity remaining in the body was taken as an indicator of paracellular permeability.

[2] = tested on: male Wistar rats; assay: Colon mucosa permeability to 51Cr-EDTA, radioactivity in 24-hour urine of rats; details: rat; SLIGRL 0.05, 0.2 and 0.5 mg/rat into colon lumen at t=0; 10-hour intracolonic 51Cr-EDTA infusion; vs solvent
Experimental: Six groups of eight male Wistar rats (200-250 g) were used for this study. The animals were fitted with an indwelling intracolonic catheter in the proximal colon (3 cm from the caeco-colic junction). In these experiments, four groups of rats received a 10-hour intracolonic infusion of ^51Cr-EDTA ([…]). The animals were placed in separate cages and total 24-hour urine was collected. Radioactivity was measured in the urine to evaluate the permeability of the colon mucosa to ^51Cr-EDTA. Increasing doses of the PAR-2 activator peptide (SLIGRL) were injected in the colon lumen (groups 2, 3 and 4) at time t=0 (start of ^51Cr-EDTA infusion) at a dose of 0.05, 0.2 and 0.5 mg/rat. Group 1 received the solvent.

[3] = tested on: male Swiss mice; assay: Colon paracellular permeability in mice after trypsin, supernatant of colon contents and antibiotic cocktail; details: mouse, intracolonic trypsin 50 μL
Experimental: Groups of ten male Swiss mice (Janvier-France) weighing 25-30 g were used for this study. In baseline conditions, the effects on colon paracellular permeability of intracolonic infusion of trypsin (50 μL, 600 U) and of supernatant of colon contents taken from control mice and given by a 3-hour intracolonic infusion (250 μL/h) on one day (D1) or on two consecutive days (D2) were evaluated. The same infusions were then repeated after 12 days of treatment with oral an antibiotic cocktail (neomycin 2 mg/kg/day+ampicillin 1 mg/kg/day).

[4] = tested on: male Wistar rats; assay: Rectal sensitivity to distention (abdominal contractions, EMG) after intracolonic trypsin; details: rat, distention at t=10 h, distention volumes 0.8, 1.2 and 1.6 ml, vs solvent control
Experimental: At time t=0, the animals received an intracolonic infusion of trypsin ([…]), a specific PAR-2 receptor activator at the dose of 20 units (group 1) or solvent (group 2). At time t=10 h after the intracolonic trypsin infusion, the animals were subjected to the rectal distention protocol.

Compound: aprotinin
- paracellular permeability (total radioactivity remaining in the body) [1]: significantly lower

Compound: CNC(=O)[C@H](Cc1c[nH]c2ccccc12)NC(=O)[C@@H](CC(=O)NO)CC(C)C [galardin]
- paracellular permeability (total radioactivity remaining in the body) [1]: significantly lower

Compound: SLIGRL
- permeability to 51Cr-EDTA (recovery in 24-hour urine) [2]: dose-dependent increase

Compound: trypsin
- increase in colon permeability after the antibiotic treatment ([3]; 600 U after 12 days of antibiotic cocktail): disappeared
- colon paracellular permeability, baseline conditions ([3]; 600 U, normal mice): increase
- abdominal response to rectal distention [4]: significant decrease
